In publication PMC6830242, “In vitro inhibition of Mycobacterium tuberculosis β-carbonic anhydrase 3 with Mono- and dithiocarbamates and evaluation of their toxicity using zebrafish developing embryos” (Journal of Enzyme Inhibition and Medicinal Chemistry, 2019) one finds Ki data, which are given here for 10 compounds.

The target of this test is T1, Mtb β-CA3 (Mycobacterium tuberculosis, UniProt P96878).
T1 construct: gene Rv3273
T1 sequence (P96878 555-764 limits assumed): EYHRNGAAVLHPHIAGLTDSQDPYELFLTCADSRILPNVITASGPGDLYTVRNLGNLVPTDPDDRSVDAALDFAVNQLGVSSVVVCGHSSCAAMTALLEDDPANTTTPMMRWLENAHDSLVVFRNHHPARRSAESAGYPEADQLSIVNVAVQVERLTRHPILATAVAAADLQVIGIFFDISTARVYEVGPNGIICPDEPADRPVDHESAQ
Nature of the test: stopped-flow CO2 hydrase assay. In kind it is biochemical. An excerpt: stopped-flow CO2 hydrase assay on Mtb β-CA3
`CCCN(CCC)C(=O)S` [compound 1, 1] displayed a Ki of 559 nM.

With `O=C(S)N1CCOCC1` [compound 2, MTC based morpholine 2], the affinity, expressed as Ki, was 748 nM.

As for `O=C(S)N1CCN(C(=O)S)CC1` [compound 3, 3], the affinity corresponds to a Ki of 812 nM.

Turning to `O=C(S)NCCc1ccccc1` [compound 5, phenylethyl 5], the affinity, expressed as Ki, was 93 nM.

`O=C(CN1CCN(C(=O)S)CC1)NC1CCCCC1` [compound 6, 6] had a Ki of 781 nM.

As to `COc1ccc(CCNC(=O)S)cc1OC` [compound 7, 3,4-dimethoxyphenylethyl derivative 7], the Ki was 97.9 nM. This Ki is about 8-fold lower than that of the compound before.

Compound `CC(C)CN(CC(C)C)C(=S)S` [compound 8, DTC 8] gave a Ki of 43 nM.

On to `S=C(S)N1CCOCC1` [compound 9, morpholine DTC 9], for which the affinity, expressed as Ki, was 2.4 nM. Against the preceding compound, the Ki is about 18-fold lower.

Regarding `S=C(S)N1CCN(C(=S)S)CC1` [compound 10, bis-piperazine derivative DTC 10], affinity was put at a Ki of 8 nM.

Consider `O=C(CN1CCN(C(=S)S)CC1)NC1CCCCC1` [compound 11, DTC 11], for which the Ki was over 2000 nM.
